“And” between values parts separate entries of the source, which are not always exact repeats. Equal values may be shown once. The source made the active and inactive calls.
Assays:
HEK293 [1] = assay: NOD1 signaling inhibitors, primary screen, cell-based, luminescence, uHTS (AID 1578); format: functional; settings: Homo sapiens
HEK293 [2] = assay: cells; format: functional, cell-based; settings: Homo sapiens
HEK293 [3] = assay: cells; format: functional, cell-based; settings: Homo sapiens; remark: listed apart in the source
[4] = target: Nucleotide-binding oligomerization domain-containing protein 2 (Homo sapiens, UniProt Q9HC29); assay: NOD2 signaling inhibitors, cell-based, luminescence, uHTS, HEK293 (AID 1566); format: functional
HEK293 [5] = assay: NOD2 signaling inhibitors in MDP-stimulated cells, cell-based, uHTS, luminescence (AID 2001); format: functional; settings: Homo sapiens
HEK293 [6] = assay: cells; format: functional, cell-based; settings: Homo sapiens; remark: listed apart in the source
Tumor necrosis factor = Tumor necrosis factor (Homo sapiens, UniProt P01375); assay: TNFa-triggered NF-kB activation inhibitors, SAR follow-up, cell-based, revised (AID 2337); format: functional
[7] = target: Nucleotide-binding oligomerization domain-containing protein 1 (Homo sapiens, UniProt Q9Y239); assay: NOD1 signaling inhibitors, SAR follow-up, revised (AID 2333); format: functional
[8] = cytotoxicity in HEK-293T cells, dose response, cytotoxicity control for TCR NF-kB inhibitor project, luminescence, T-cell screen hits (AID 489026); format: functional, cell-based;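 also: cells exposed to compound about 14 hours before the viability readout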
HEK293 [9] = assay: cells; settings: Homo sapiens
[10] = target: Intestinal-type alkaline phosphatase (Homo sapiens, UniProt P09923); assay: activation of human intestinal alkaline phosphatase – biochemical, dose response (AID 488873); format: functional
[11] = target: T1, Intestinal-type alkaline phosphatase (Mus musculus, UniProt P24822); assay: PubChem AID 488785; format: functional
[12] = target: T2, Alkaline phosphatase, tissue-nonspecific isozyme (Homo sapiens, UniProt P05186); assay: TNAP enzyme inhibition by screening hits, dose response, selectivity assay for mouse IAP inhibitor project, biochemical, human TNAP, uHTS hits (AID 488906); format: functional
T2 sequence (P05186 whole entry): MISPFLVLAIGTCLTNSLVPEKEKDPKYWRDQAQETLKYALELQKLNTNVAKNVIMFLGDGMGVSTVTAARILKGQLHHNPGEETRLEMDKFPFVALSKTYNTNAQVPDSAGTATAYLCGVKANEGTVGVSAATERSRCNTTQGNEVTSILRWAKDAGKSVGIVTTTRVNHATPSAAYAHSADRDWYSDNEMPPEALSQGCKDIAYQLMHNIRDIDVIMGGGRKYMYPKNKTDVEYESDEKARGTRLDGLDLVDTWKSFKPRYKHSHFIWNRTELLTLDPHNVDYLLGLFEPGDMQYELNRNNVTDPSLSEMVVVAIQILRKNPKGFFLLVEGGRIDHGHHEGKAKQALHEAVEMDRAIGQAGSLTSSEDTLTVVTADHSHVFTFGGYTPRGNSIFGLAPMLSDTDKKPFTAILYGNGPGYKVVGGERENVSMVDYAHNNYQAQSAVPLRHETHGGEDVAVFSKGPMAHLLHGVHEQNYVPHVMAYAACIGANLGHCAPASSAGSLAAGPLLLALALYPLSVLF

[13] = target: T3, Heat shock factor protein 1 (Mus musculus, UniProt P38532); assay: inhibition of MG132-induced HSE-luciferase signal, confirmation, cell-based, NIH3T3, luminescence, dose retest (AID 2382); format: functional;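 also: NIH3T3 fibroblasts with HSF1-driven luciferase reporter stressed by proteasome inhibitor MG132; luminescence from HSF1-driven luciferase expression after 8 hours of MG132 stress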
T3 sequence (P38532 whole entry): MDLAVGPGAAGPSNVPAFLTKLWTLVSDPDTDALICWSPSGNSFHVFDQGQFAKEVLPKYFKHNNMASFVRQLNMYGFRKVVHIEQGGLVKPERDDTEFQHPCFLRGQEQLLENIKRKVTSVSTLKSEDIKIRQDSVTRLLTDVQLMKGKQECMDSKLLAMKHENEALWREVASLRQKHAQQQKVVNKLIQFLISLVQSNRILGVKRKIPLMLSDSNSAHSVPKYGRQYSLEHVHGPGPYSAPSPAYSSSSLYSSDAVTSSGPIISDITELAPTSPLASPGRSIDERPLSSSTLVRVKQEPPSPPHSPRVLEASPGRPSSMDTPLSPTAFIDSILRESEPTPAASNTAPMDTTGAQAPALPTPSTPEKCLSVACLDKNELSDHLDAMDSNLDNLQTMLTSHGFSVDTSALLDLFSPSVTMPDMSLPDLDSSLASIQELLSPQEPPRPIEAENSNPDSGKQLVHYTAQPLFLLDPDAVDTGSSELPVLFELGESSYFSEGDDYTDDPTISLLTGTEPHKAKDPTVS

[14] = target: T1, Intestinal-type alkaline phosphatase; assay: mouse intestinal alkaline phosphatase activators, dose response, biochemical, luminescence, uHTS hits (AID 488783); format: functional
[15] = target: T2, Alkaline phosphatase, tissue-nonspecific isozyme; assay: TNAP enzyme activators, dose response, selectivity assay for mouse IAP activator project, biochemical, TNAP isozyme, mouse IAP uHTS hits (AID 488880); format: functional
Streptokinase A = target: T4, Streptokinase A (Streptococcus pyogenes serotype M1, UniProt P10520); assay: S. pyogenes streptokinase expression inhibitors, potency, dose response, plasminogen activation absorbance, OD405 (AID 1914); format: functional, Streptococcus pyogenes M1 GAS;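 also: secreted streptokinase activity via plasminogen activation per viability signal from cell pellet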
T4 sequence (P10520 whole entry): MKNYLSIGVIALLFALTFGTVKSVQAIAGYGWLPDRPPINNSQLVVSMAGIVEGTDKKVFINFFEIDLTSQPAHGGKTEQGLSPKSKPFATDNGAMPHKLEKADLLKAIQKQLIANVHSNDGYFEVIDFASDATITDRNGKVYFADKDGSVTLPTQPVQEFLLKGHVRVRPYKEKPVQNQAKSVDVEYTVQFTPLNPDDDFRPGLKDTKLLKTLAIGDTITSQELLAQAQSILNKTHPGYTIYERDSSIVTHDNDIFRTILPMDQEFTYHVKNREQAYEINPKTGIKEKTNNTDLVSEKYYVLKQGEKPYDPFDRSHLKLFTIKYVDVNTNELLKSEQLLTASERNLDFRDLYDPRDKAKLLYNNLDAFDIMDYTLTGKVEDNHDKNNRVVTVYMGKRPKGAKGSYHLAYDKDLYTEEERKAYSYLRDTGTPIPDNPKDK

[16] = target: T5, G-protein coupled receptor 35 (Homo sapiens, UniProt Q9HC97); assay: SAR analysis of Agonists of the GPR35 Receptor using an Image-Based Assay - Set 4. [Related pubchem assays (depositor defined):AID2013, AID2026]; format: functional
Cannabinoid receptor 1 [17] = target: T6, Cannabinoid receptor 1 (Homo sapiens, UniProt P21554); assay: SAR analysis of agonists of the Cannabinoid Receptor 1 using an Image-Based Assay - Set 4. [Related pubchem assays (depositor defined):AID2013, AID2026]; format: functional
[18] = target: T5, G-protein coupled receptor 35; assay: SAR analysis of Antagonists of the GPR35 Receptor using an Image-Based Assay - Set 6. [Related pubchem assays (depositor defined):AID2013, AID2026]; format: functional
Cannabinoid receptor 1 [19] = target: T6, Cannabinoid receptor 1; assay: SAR analysis of antagonists of the Cannabinoid Receptor 1 using an Image-Based Assay - Set 4. [Related pubchem assays (depositor defined):AID2013, AID2026]; format: functional
[20] = target: G-protein coupled receptor 55 (Homo sapiens, UniProt Q9Y2T6); assay: SAR Analysis of Selective Antagonists of GPR55 using an Image-Based Assay - Set 4. [Related pubchem assays (depositor defined):AID2013, AID2026]; format: functional;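 also: antagonism of response to 5 µM lysophosphatidylinositol agonist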
Cannabinoid receptor 2 [21] = target: T7, Cannabinoid receptor 2 (Homo sapiens, UniProt P34972); assay: SAR analysis of antagonists of the Cannabinoid Receptor 2 using an Image-Based Assay - Set 3. [Related pubchem assays (depositor defined):AID2013, AID2026]; format: functional
Cannabinoid receptor 2 [22] = target: T7, Cannabinoid receptor 2; assay: SAR analysis of agonists of the Cannabinoid Receptor 2 using an Image-Based Assay - Set 3. [Related pubchem assays (depositor defined):AID2013, AID2026]; format: functional
Cytochrome P450 2D6 = Cytochrome P450 2D6 (Homo sapiens, UniProt P10635);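 also: CYP2D6 member of a cytochrome P450 panel assay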
[23] = target: Tyrosine-protein phosphatase non-receptor type 7 (Homo sapiens, UniProt P35236); format: functional
[24] = target: T8, Tyrosine-protein phosphatase non-receptor type 22 (Homo sapiens, UniProt Q9Y2R2); format: functional
T8 sequence (Q9Y2R2 whole entry): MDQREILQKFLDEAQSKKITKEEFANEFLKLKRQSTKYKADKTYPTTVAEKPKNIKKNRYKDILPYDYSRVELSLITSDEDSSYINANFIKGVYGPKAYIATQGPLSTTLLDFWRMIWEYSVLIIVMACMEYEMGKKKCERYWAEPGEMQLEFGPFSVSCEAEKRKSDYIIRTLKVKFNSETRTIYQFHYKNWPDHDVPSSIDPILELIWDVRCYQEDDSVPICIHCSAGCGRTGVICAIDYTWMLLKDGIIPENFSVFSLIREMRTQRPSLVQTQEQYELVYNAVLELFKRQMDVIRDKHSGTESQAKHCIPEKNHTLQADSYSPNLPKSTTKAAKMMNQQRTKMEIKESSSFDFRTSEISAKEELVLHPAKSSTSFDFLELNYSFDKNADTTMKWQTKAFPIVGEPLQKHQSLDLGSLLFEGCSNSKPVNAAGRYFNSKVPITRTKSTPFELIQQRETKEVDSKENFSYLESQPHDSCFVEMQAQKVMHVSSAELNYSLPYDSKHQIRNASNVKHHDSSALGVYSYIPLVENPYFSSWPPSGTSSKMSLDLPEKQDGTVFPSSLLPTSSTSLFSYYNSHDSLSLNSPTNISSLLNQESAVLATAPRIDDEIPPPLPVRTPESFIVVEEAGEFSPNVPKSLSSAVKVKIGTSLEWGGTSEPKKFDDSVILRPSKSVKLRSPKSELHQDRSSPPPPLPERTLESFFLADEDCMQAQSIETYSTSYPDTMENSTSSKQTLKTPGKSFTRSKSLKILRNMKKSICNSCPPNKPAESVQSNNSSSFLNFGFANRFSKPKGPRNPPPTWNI

[25] = target: T8, Tyrosine-protein phosphatase non-receptor type 22; format: functional; remark: listed apart in the source
CAAX prenyl protease 1 = CAAX prenyl protease 1 (Saccharomyces cerevisiae S288c, UniProt P47154); assay: Ste24 protease inhibitors, dose response, biochemical, S. cerevisiae, plate reader, cherry-pick (AID 488815)
CAAX prenyl protease 2 = CAAX prenyl protease 2 (Homo sapiens, UniProt Q9Y256); assay: human Rce1 protease inhibitors, dose response, biochemical, yeast membranes, quenched-peptide fluorescence, cherry-pick (AID 588849)
[26] = target: T9, Mannose-6-phosphate isomerase (Homo sapiens, UniProt P34949); assay: PMI enzyme inhibitors, confirmation, biochemical, fluorescence intensity (AID 1535)
T9 sequence (P34949 whole entry): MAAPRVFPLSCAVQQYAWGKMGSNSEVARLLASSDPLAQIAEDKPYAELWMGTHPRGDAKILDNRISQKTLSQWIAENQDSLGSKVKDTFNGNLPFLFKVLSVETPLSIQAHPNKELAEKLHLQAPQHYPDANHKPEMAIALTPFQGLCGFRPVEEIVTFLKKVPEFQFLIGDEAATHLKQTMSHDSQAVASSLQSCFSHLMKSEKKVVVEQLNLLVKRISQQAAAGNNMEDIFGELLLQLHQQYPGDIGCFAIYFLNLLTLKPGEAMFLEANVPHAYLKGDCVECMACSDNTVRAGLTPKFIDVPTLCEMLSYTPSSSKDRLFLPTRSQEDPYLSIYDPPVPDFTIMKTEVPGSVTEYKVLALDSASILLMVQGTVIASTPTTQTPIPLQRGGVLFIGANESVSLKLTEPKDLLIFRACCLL

Phosphomannomutase 2 = Phosphomannomutase 2 (Homo sapiens, UniProt O15305); assay: Counter screen SAR assay for PMM2 inhibitors via a fluorescence intensity assay. [Related pubchem assays (depositor defined):AID1545, AID1574]
[27] = target: Phosphoethanolamine/phosphocholine phosphatase (Homo sapiens, UniProt Q8TCT1); assay: SAR assay for compounds that inhibit PHOSPHO1. [Related pubchem assays (depositor defined):AID1545, AID1565, AID1574]
Chain of Phosphoethanolamine/phosphocholine phosphatase (Q8TCT1 whole entry): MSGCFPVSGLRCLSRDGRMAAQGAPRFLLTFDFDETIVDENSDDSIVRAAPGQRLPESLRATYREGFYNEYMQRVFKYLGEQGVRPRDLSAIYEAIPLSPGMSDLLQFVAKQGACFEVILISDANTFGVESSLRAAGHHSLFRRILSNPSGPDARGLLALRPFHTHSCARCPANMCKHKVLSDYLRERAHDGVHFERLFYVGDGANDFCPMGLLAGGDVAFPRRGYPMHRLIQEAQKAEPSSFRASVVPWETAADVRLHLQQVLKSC

T6 sequence (P21554 whole entry): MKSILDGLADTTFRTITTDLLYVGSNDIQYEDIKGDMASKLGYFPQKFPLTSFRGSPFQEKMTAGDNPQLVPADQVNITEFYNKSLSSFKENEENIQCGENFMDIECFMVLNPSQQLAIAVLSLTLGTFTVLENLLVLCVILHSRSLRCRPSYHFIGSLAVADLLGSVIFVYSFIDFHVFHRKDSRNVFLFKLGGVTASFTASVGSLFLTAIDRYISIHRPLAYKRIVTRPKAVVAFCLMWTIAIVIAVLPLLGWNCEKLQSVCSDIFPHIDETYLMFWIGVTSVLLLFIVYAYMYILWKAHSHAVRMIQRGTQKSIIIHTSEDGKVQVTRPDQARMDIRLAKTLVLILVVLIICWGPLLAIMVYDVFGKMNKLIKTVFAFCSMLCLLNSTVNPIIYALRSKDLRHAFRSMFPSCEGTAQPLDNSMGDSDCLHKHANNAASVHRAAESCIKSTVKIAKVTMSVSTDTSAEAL
T7 sequence (P34972 whole entry): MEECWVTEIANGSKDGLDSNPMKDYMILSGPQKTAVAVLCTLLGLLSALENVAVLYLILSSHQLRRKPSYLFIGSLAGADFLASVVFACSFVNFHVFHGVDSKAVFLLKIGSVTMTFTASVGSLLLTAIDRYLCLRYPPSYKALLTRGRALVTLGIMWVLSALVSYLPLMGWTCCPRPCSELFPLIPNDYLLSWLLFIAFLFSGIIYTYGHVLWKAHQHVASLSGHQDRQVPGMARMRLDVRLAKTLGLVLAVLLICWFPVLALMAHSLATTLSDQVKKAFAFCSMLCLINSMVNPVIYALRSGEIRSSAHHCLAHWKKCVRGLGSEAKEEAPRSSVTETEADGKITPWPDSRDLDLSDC
T5 sequence (Q9HC97 whole entry): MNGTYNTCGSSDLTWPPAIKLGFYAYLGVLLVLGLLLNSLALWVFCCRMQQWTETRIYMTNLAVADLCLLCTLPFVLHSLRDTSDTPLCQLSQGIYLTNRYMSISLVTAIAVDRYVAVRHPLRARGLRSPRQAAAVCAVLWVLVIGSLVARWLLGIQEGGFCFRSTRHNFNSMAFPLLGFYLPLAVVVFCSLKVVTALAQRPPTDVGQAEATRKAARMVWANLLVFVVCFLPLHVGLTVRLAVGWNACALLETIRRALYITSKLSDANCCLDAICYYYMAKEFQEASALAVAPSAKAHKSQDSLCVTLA
Chain of Intestinal-type alkaline phosphatase (Homo sapiens, UniProt P09923) (P09923 whole entry): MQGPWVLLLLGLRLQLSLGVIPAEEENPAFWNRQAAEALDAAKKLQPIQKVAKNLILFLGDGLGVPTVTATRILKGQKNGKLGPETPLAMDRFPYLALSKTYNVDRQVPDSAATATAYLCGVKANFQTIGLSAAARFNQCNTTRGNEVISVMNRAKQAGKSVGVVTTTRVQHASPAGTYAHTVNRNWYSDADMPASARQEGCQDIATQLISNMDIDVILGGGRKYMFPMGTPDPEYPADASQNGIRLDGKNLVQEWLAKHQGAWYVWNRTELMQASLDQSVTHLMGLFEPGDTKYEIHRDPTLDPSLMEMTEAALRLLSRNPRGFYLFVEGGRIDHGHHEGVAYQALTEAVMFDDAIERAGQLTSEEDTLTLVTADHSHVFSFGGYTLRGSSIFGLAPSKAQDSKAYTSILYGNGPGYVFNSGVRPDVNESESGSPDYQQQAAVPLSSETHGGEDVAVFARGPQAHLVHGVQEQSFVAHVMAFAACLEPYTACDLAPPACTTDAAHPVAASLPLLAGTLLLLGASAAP
Chain of G-protein coupled receptor 55 (Q9Y2T6 whole entry): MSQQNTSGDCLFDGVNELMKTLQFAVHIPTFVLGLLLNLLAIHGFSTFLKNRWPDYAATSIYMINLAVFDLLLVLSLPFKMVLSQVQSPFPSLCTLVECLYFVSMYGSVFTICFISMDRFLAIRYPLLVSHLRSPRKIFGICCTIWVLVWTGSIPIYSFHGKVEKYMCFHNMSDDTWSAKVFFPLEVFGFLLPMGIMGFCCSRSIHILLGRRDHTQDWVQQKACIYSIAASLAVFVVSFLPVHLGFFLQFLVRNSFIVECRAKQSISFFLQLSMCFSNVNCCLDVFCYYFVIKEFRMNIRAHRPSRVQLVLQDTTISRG
T1 sequence (P24822 whole entry): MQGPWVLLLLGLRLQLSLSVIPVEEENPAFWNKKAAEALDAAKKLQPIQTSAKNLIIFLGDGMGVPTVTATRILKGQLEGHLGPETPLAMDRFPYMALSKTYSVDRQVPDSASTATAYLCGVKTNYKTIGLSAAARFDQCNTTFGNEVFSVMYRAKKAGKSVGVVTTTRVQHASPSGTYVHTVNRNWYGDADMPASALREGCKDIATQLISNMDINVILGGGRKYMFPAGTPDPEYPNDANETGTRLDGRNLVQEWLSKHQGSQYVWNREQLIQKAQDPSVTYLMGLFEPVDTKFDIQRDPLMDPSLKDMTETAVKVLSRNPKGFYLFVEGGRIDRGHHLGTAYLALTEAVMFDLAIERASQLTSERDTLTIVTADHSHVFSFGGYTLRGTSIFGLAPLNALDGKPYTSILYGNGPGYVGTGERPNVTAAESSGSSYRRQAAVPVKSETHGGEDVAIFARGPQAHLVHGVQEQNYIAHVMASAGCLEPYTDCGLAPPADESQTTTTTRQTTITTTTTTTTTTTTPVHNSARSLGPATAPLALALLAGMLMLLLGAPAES
Chain of Nucleotide-binding oligomerization domain-containing protein 1 (Q9Y239 whole entry, the tested form may be a part): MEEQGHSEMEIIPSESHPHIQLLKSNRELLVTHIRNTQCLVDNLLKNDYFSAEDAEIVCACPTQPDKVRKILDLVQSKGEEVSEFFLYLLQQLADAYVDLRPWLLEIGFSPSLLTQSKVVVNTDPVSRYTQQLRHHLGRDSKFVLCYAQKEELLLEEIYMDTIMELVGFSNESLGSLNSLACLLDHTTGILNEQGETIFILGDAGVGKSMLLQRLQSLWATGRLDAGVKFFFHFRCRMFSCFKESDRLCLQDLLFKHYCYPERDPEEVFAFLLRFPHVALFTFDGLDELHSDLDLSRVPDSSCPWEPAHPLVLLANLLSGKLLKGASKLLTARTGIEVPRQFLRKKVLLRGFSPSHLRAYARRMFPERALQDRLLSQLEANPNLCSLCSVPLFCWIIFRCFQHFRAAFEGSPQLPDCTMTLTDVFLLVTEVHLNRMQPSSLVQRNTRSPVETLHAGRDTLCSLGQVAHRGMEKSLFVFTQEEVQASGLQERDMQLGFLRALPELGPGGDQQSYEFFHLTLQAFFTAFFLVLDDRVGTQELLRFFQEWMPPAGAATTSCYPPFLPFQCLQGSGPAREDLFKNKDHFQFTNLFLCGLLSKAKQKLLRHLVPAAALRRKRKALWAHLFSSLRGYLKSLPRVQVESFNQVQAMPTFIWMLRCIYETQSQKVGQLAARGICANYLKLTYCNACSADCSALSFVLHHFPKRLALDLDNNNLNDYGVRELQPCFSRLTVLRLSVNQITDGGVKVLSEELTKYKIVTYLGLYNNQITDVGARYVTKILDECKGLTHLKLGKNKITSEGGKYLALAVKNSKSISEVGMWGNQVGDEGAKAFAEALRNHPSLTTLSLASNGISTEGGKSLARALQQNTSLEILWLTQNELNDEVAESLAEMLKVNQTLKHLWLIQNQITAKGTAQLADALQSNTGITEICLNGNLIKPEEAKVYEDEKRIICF
Chain of Tumor necrosis factor (P01375 whole entry, the tested form may be a part): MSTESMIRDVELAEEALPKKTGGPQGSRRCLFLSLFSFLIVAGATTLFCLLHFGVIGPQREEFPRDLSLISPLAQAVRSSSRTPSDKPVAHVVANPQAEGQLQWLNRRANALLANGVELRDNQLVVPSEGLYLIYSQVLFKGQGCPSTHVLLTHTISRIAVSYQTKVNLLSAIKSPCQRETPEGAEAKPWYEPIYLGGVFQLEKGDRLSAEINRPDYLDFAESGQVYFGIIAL
Chain of Phosphomannomutase 2 (O15305 whole entry): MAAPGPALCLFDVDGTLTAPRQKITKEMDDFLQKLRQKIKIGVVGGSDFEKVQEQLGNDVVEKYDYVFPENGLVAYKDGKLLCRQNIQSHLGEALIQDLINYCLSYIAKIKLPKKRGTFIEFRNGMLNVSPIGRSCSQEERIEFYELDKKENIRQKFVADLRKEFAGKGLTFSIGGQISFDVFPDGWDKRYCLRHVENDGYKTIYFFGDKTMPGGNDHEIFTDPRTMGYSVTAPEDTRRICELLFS
Chain of CAAX prenyl protease 2 (Q9Y256 whole entry): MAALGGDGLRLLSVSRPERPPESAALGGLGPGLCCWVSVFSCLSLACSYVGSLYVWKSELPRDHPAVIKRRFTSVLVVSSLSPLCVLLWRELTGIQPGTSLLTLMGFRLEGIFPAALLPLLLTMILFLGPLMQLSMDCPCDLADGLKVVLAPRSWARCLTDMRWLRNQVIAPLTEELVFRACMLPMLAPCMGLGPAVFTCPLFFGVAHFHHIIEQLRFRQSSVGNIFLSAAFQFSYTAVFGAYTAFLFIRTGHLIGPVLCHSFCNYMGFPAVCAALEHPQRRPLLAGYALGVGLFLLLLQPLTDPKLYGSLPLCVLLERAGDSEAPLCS
Chain of Tyrosine-protein phosphatase non-receptor type 7 (P35236 whole entry): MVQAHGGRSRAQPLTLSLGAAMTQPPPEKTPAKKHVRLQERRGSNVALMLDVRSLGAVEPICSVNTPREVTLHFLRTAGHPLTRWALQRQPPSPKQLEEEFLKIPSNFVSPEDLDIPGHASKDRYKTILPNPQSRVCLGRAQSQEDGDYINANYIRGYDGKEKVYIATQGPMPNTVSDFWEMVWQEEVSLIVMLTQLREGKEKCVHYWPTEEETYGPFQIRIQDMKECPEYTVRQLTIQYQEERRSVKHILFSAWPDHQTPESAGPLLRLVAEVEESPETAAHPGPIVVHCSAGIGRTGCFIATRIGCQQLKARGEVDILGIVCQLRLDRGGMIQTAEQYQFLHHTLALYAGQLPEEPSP

In the case of `Cc1cc(-c2ccc(C)c(S(=O)(=O)N3CCN(c4ccc([N+](=O)[O-])cc4)CC3)c2)on1`, the EC50 (HEK293 [1]) is reported as 2.09 µM (active), the IC50 (HEK293 [2]) is reported as 2.36 µM (active) and the IC50 (HEK293 [3]) is reported as > 20 µM (inactive). The EC50 [4] was > 20 µM (inactive), the IC50 (HEK293 [5]) was 7.6 µM (inactive) and the IC50 (HEK293 [6]) was > 20 µM (inactive). For the same compound, the IC50 (Tumor necrosis factor) was 2.11 µM (active), the IC50 [7] was 2.42 µM (active) and the IC50 [8] was > 80 µM (inactive). For the same compound, the IC50 (HEK293 [9]) was > 20 µM (inactive).

For `COc1ccc(OC)c(NC(=O)CCNS(=O)(=O)c2ccc3[nH]c(=O)oc3c2)c1`, the EC50 [10] was > 100 µM (inactive), the IC50 [11] was 2.49 µM (active) and the IC50 [12] was > 100 µM (inactive).

In the case of `COc1cc(OC)c(NC(=O)CN(C)S(=O)(=O)c2ccc3nc(O)oc3c2)cc1Cl`, the EC50 [13] is reported as > 195 µM (not active), the EC50 [10] is reported as 68.4 µM (active) and the EC50 [14] is reported as 51.5 µM (active). The EC50 [15] was 70.7 µM (active).

With `COc1ccc(-c2n[nH]c(C)c2-c2ccc(Cl)cc2)c(O)c1` the EC50 (Streptokinase A) was 9.86 µM (active), the EC50 [16] was > 32 µM (inactive) and the EC50 (Cannabinoid receptor 1 [17]) was > 32 µM (inactive). The IC50 [18] was > 32 µM (inactive), the IC50 (Cannabinoid receptor 1 [19]) was 548 nM (active) and 607 nM (active) and the IC50 [20] was 10.9 µM (inactive) and 13.4 µM (inactive). For the same compound, the IC50 (Cannabinoid receptor 2 [21]) was 5.22 µM (active) and 4.83 µM (active), the EC50 (Cannabinoid receptor 2 [22]) was 4.81 µM (active) and 5.4 µM (active) and the AC50 (Cytochrome P450 2D6) was 28.2 µM (inconclusive).

In the case of `C=CCN(CC=C)C(=S)NC(=O)/C=C/c1ccc(C)cc1`, the IC50 [23] is reported as > 79.4 µM (inactive), the IC50 [24] is reported as > 79.4 µM (inactive) and the IC50 [25] is reported as > 79.4 µM (inactive).

With `O=C(NCC1CC1)c1cc(-c2ccccc2)nn1CC1CC(c2cccc([N+](=O)[O-])c2)=NO1` (centres undefined) the AC50 (CAAX prenyl protease 1) was 6.73 µM (active) and the AC50 (CAAX prenyl protease 2) was 11.7 µM (active).

For `O=c1c2ccc(F)cc2sn1-c1ccc(Cl)cc1Cl`, the IC50 [26] was 14.4 µM (active), the IC50 (Phosphomannomutase 2) was > 100 µM (inactive) and the IC50 [27] was 0.534 µM (active).
